Measured values as given in patent publication US20100137394A1, “PYRAZOLE INHIBITORS OF WNT SIGNALING” (Grenentech, Inc., priority 2007, published 2010).

System: Wnt pathway signaling
Experiment: Wnt Assay (Super8xTopflash reporter assay)
Assay type: cell-based
Conditions: 10T1/2 Super8xTopflash reporter cell line, Wnt3a in medium, luciferase signal read after 20-24 h; read-out: IC50, inhibition of Wnt pathway signaling activity
Method: 10T1/2 Super8xTopflash reporter cell line was generated by stable transfection of a Super8xTopflash reporter plasmid containing 8 tandem repeats of TCF4 binding sites upstream of Luciferase gene. Cells were seeded at 20 K/well density (in normal growth medium with 10% FBS and 0.4 mg/ml G418) in white 96-well plates with clear bottom (BD Falcon Microtest Optilux plate, Ref. 353947) and grown for 20-24 hours. Fesh growth medium was prepared without G418 and with appropriate Wnt3a concentration (concentration that gave 40-50% of maximum activation based on the dose-response curve performed for each new batch of protein; typically ˜0.1 ug/ml).
Old medium was removed from the 96-well plate, which was gently blotted on paper towel, then all relevant wells were replenished with fresh medium containing Wnt (100 ul/well).
The wells with highest compound concentrations (usually 10 or 30 uM) were filled separately with 150 ul of prepared medium containing both Wnt3a and the test compounds. Using a multichannel pipetman, 50 ul was drawn from these wells and dispensed and mixed gently into the next row of wells to achieve 1:3 dilution of compounds. […]
After 20-24 h the cells were lysed and the luciferase signal was read using Perkin Elmer luclite assay system, Cat. #6016911). […] Approximately 15 min later the plates were read on a TopCount machine.

IC50: 218 nM
Structure (SMILES): COc1ccc(CC(=O)N2CCC(c3ccc(NS(C)(=O)=O)cc3)=N2)cc1OC [compound 12]
